# Test results as given in patent publication US20230110128A1, “USE OF ANTIBODY DRUG CONJUGATES COMPRISING TUBULIN DISRUPTING AGENTS TO TREAT SOLID TUMOR” (Seagen Inc., priority 2018, published 2023).
# Non-standard residues stand in square brackets, D forms with d. Residues, ends and D or L forms follow the SMILES beside them. *: point of attachment. Dolaproine = CO[C@@H]([C@@H]1CCCN1)[C@@H](C)C(=O)O; Dil = CC[C@H](C)[C@H](NC)[C@@H](CC(=O)O)OC; X1 = C[C@@H](N*)[C@@H](O)c1ccccc1; NMeV = CN[C@H](C(=O)O)C(C)C
# Experiments:
# Type in all cases: cell-based
# MCF7 cells = assay: HMGB1 release from MCF7 cells
# Description: (§1) Induction of ICD is also characterized by the secretion of ATP and HMGB1. Extracellular ATP serves as a strong chemotactic signal, promoting immune cell migration to the tumor site. Upon arrival, extracellular HMGB1 signals through various pro-inflammatory receptors (TLR2, TLR4, RAGE) to activate antigen-presenting cells, thereby promoting immune activity within the tumor.
# as §1, with “MCF7 cells were treated with MMAE or an MMAE-containing ADC (SGN-LIV1A) for 16 hours and harvested in […] for western bot analysis. […] Induction” for “Induction”
# [1] = test system: A2058, SK-MEL-5, SK-MEL-28, Calu-1, HT-1080, SK-MES-1 and BXPC3 cells; assay: ATP secretion in a panel of solid tumor cell lines; conditions: 7 cell lines, supernatant after 17 hours
# Description: (§2) Skin tumor lines A2058, SK-MEL-5 and SK-MEL-28, Calu-1 (lung), HT-1080 (fibrosarcoma), SK-MES-1 (lung), and BXPC3 (pancreas) cells were treated with MMAE, vincristine, and Paclitaxel. Supernatant was collected after 17 hours of treatment, and analyzed for ATP secretion.
# [2] = test system: A2058, SK-MEL-5, SK-MEL-28 (skin) cell lines; assay: ATP secretion in skin cell lines; conditions: A2058, SK-MEL-5, SK-MEL-28, after 17 hours
# Description: as §2
# [3] = test system: A2058 and SK-MEL-5 tumor cells co-cultured with macrophages; assay: Cytokine and chemokine production in macrophage co-culture with treated A2058 and SK-MEL-5 cells; conditions: A2058 and SK-MEL-5 co-culture supernatant 24 hours, ELISA, normalized to untreated
# Description: Supernatant from the co-culture of macrophages and dying A2058 and SK-MEL-5 tumor cells was harvested 24 hours later and assayed for levels of cytokine and chemokine production by ELISA and normalized to macrophages that were co-cultured with untreated tumor cells.
# [4] = test system: BxPC3 and HPAFII tumor cells co-cultured with macrophages; assay: Cytokine and chemokine production in macrophage co-culture with treated BxPC3 and HPAFII cells; conditions: BxPC3 and HPAFII co-culture supernatant 24 hours, ELISA, normalized to untreated
# Description: Supernatant from the co-culture of macrophages and dying tumor cells was harvested 24 hours later and assayed for levels of cytokine and chemokine production by ELISA and normalized to macrophages that were co-cultured with untreated tumor cells.
# [5] = test system: Calu-1 cells co-cultured with macrophages; assay: Cytokine and chemokine production in macrophage co-culture with treated Calu-1 cells; conditions: Calu-1 co-culture supernatant 24 hours, ELISA, normalized to untreated
# Description: Supernatant from the co-culture of macrophages and dying tumor cells was harvested 24 hours later and assayed for levels of cytokine and chemokine production by ELISA and normalized to macrophages that were co-cultured with untreated tumor cells as described above.
# [6] = test system: MCF7 cells co-cultured with macrophages; assay: Macrophage antigen presentation after co-culture with treated MCF7 cells; conditions: MCF7 treated 24 hours; macrophages harvested 4 days after co-culture
# Description: MCF7 […] cells were treated with MMAE, an MMAE-containing ADC (anti-CD71 OKT9-1006), vincristine, and Paclitaxel for 24 hours. Cells were washed and harvested, and subsequently co-cultured with the enriched macrophages prepared above. Macrophages were harvested 4 days after co-culture and assayed for immune activation by flow cytometry. […] Supernatant from the co-culture of macrophages and dying MCF7 cells was harvested 24 hours later and assayed for levels of cytokine and chemokine production by ELISA and normalized to macrophages that were co-cultured with untreated tumor cells.
# MDA-MB-468 cells = assay: ATP secretion from MDA-MB-468 cells; conditions: supernatant after 48 hours
# Description: MDA-MB-468 cells were treated with MMAE or an MMAE-containing ADC (ASG-22ME). Supernatant was collected after 48 hours of treatment, and analyzed for ATP secretion.
# [7] = test system: Hep3b, Huh7, and JHH7 cells; assay: ATP secretion from liver tumor lines; conditions: Huh7, JHH7, 24 hours
# Description: (§3) Liver tumor lines Hep3b, Huh7, and JHH7 cells were treated with MMAE, Tubulysin M, vincristine, and Paclitaxel for 24 hours and analyzed for ATP secretion. […] Cells were washed and harvested, and subsequently co-cultured with enriched macrophages prepared as above. Macrophages were harvested 4 days after co-culture and assayed for immune activation by flow cytometry. Levels of costimulation (as measured by CD86 expression, JHH7) and antigen-presentation (as measured by frequency of MHCII-expressing cells, Hep3b, Huh7, and JHH7) were quantified and normalized to macrophages that were co-cultured with […]. […] Supernatant from the co-culture of macrophages and dying liver tumor cells was harvested 24 hours later and assayed for levels of cytokine and chemokine production by ELISA and normalized to macrophages that were co-cultured with untreated tumor cells.
# [8] = test system: Hep3b, Huh7, and JHH7 cells co-cultured with macrophages; assay: Cytokine and chemokine production in macrophage co-culture with treated liver tumor cells; conditions: Huh7, JHH7 co-culture supernatant 24 hours, ELISA, normalized to untreated
# Description: as §3
# T-24 (bladder) cells = assay: ATP secretion from T-24 cells; conditions: 48 hours
# Description: T-24 (bladder) cells were treated with MMAE or an MMAE-containing ADC (ASG-22ME) for 48 hours and analyzed for ATP secretion. […] T-24 cells were also treated with MMAE, an MMAE-containing ADC (ASG22ME, Enfortumab vedotin), vincristine, and Paclitaxel for 24 hours. Cells were washed and harvested, and subsequently co-cultured with the enriched macrophages as above. Macrophages were harvested 4 days after co-culture and assayed for immune activation by flow cytometry. Level of antigen-presentation (as measured by frequency of MHCII-expressing macrophages) was quantified and normalized to macrophages that were co-cultured with untreated tumor cells. […] Supernatant from the co-culture of macrophages and dying T-24 tumor cells was harvested after 24 hours and assayed for levels of cytokine and chemokine production by ELISA and normalized to macrophages that were co-cultured with untreated tumor cells.
# U-266 cells = assay: Cell surface ICD markers (HSP70, calreticulin) on AnnexinV negative U-266 cells; conditions: 48 hours, MMAE 492 nM, SGN-CD48A 10 ng/ml
# Description: U-266 cells were treated for 48 hours with free MMAE (492 nM), an MMAE-containing ADC (SGN-CD48A, 10 ng/ml), and a non-binding MMAE-ADC (10 ng/ml) for 48 hours. Cells were harvested, washed in flow buffer, and subsequently stained for both AnnexinV, a marker for apoptosis, and HSP70. Cells were also stained with both AnnexinV and calreticulin. In both conditions, cells that were AnnexinV negative were selected and the percent population that was positive for HSP70 or calreticulin were determined.
compound,measurement,setting,value
"CC[C@H](C)[C@@H]([C@@H](CC(=O)N1CCC[C@H]1[C@H](OC)[C@@H](C)C(=O)N[C@H](C)[C@@H](O)c1ccccc1)OC)N(C)C(=O)[C@@H](NC(=O)[C@@H](NC)C(C)C)C(C)C [MMAE, monomethyl auristatin E] (H-[NMeV]V[Dil][Dolaproine]-X1)",Secretion of HMGB1,MCF7 cells,increased secretion
same,ATP secretion (cell lines responding),[1],ATP secretion in most of the cell lines assayed (6/7)
same,ATP secretion response compared with Paclitaxel,[1],more robust response than Paclitaxel in all cell lines assayed
same,ATP secretion (skin cell lines responding),[2],potent ATP secretion from all 3
same,Cytokine and chemokine production,[3],increase of the indicated cytokines and chemokines that was more robust than treatment with Paclitaxel
same,Cytokine and chemokine production,[4],increase of the indicated cytokines and chemokines that was more robust than treatment with Paclitaxel
same,Cytokine and chemokine production,[5],increase of the indicated cytokines and chemokines that was more robust than treatment with Paclitaxel
same,Macrophage antigen presentation (frequency of MHCII-expressing macrophages),[6],increase in macrophage antigen presentation
same,ATP secretion,MDA-MB-468 cells,robust ATP secretion that was comparable to thapsigargin
same,ATP secretion (cell lines responding),[7],potent ATP secretion from 3 of 3 cell lines evaluated
same,Cytokine and chemokine production,[8],increase of the indicated cytokines and chemokines that was more robust than treatment with Paclitaxel
same,ATP secretion,T-24 (bladder) cells,potent ATP secretion
same,"Percentage of ICD markers (HSP70, calreticulin) on the cell surface of AnnexinV negative cells",U-266 cells,increase in the percentage of ICD markers
